{"source": "paper PMC10333884", "about": "“Large‐scale phosphomimetic screening identifies phospho‐modulated motif‐based protein interactions” (Molecular Systems Biology, 2023)", "type_in_all_cases": "binding", "key": {"AP2 μ2": {"biological_target": "T1, AP2 μ2 (Homo sapiens, UniProt Q96CW1)", "T1 construct": "AP2_Mu__Q96CW1_160_435; GST (cleaved yes); made in house; host or cells: Escherichia coli BL21-Gold(DE3)", "T1 sequence (Q96CW1 160-435)": "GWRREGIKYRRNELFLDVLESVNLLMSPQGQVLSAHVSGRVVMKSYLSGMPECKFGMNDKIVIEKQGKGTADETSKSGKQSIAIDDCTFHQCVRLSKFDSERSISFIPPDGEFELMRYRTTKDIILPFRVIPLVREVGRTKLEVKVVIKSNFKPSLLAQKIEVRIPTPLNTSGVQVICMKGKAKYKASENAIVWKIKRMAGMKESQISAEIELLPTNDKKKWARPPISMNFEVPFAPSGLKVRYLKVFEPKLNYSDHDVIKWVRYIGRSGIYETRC", "assay": "FP displacement assay, AP2 μ2", "conditions": "probe FITC-ATG9A 5 nM, 50 mM sodium phosphate pH 7.4, room temperature, at least three technical replicates, read-out: KD values ± SEM", "procedure": "(§1) FP experiments were performed as described previously (Kliche et al, [2021]). Shortly, in order to monitor the binding event, FITC‐labelled peptides were used (excitation 495 nm, emission: 535 nm) and the FP signal was recorded in mP on a SpectraMax iD5 Multi‐Mode Microplate Reader (Molecular Devices) by measuring the emitted light in two angels. The measurements were performed at room temperature and prepared in nonbinding black half area 96‐well microplates (Corning®; 50 μl/well). For measuring direct binding, that is saturation curves, a 1:1 dilution series of protein domain (25 μl/well) was generated in 50 mM sodium phosphate buffer pH 7.4 and the measurement performed with 5 nM FITC‐labelled peptide (25 μl/well). The buffer‐corrected values were subsequently plotted with PRISM and fitted to the quadratic equation (Gianni et al, [2005]).\n(§2) The 1:1 dilution series in this experiment was performed with the unlabelled peptide in 50 mM sodium phosphate buffer pH 7.4, so that each well‐contained unlabelled peptide (25 μl) at a certain concentration and pre‐formed complex (25 μl). The KD values of this indirectly monitored binding event were calculated as described previously (Nikolovska‐Coleska et al, [2004]). All measurements were at least in technical triplicates as well as biological duplicates when indicated. An amplitude shift between repeat measurements in the displacement experiments was occasionally observed due to variations in the protein preparations. If that was the case, the “active” protein concentration was back‐calculated according to the quadratic equation from the saturation curves performed in parallel. By comparing the active protein concentrations in the complex between different protein preparations, the amplitude was normalised."}, "Clathrin NTD [1]": {"biological_target": "T2, Clathrin NTD (Homo sapiens, UniProt Q00610)", "T2 construct": "GST (cleaved yes); made in house; host or cells: Escherichia coli BL21-Gold(DE3)", "T2 sequence (Q00610 1-364)": "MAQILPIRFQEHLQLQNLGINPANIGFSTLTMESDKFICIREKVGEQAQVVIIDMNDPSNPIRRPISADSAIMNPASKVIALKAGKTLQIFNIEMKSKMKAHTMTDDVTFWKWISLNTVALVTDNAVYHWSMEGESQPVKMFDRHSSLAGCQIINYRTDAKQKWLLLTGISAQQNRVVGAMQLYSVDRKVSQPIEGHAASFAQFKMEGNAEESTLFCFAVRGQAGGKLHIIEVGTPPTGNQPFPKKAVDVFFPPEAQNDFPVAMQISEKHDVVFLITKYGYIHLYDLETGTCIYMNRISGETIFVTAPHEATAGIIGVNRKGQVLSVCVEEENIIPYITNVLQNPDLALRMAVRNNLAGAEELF", "assay": "FP displacement assay, clathrin NTD", "procedure": "as §1, §2"}, "Clathrin NTD [2]": {"biological_target": "T2, Clathrin NTD", "assay": "ITC, clathrin NTD", "conditions": "ITC (iTC200), 50 mM sodium phosphate pH 7.4, 1 mM DTT; average of the runs, at least technical triplicates"}, "RANBP2 RanBD4": {"biological_target": "T3, RANBP2 RanBD4 (Homo sapiens, UniProt P49792)", "T3 construct": "GST (cleaved yes); made in house; host or cells: Escherichia coli BL21-Gold(DE3)", "T3 sequence (P49792 2924-3050)": "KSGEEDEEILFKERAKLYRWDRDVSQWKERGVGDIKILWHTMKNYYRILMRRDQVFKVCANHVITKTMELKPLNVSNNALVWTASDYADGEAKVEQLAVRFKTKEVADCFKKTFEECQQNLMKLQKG", "assay": "FP displacement assay, RANBP2 RanBD4", "conditions": "probe FITC-C7orf25 5 nM, 50 mM sodium phosphate pH 7.4, room temperature, at least three technical replicates, read-out: KD values ± SEM", "procedure": "as §1, §2"}, "14-3-3 theta": {"biological_target": "T4, 14-3-3 theta (Homo sapiens, UniProt P27348)", "T4 construct": "GST (cleaved yes); made in house; host or cells: Escherichia coli BL21-Gold(DE3)", "T4 sequence (P27348 1-245)": "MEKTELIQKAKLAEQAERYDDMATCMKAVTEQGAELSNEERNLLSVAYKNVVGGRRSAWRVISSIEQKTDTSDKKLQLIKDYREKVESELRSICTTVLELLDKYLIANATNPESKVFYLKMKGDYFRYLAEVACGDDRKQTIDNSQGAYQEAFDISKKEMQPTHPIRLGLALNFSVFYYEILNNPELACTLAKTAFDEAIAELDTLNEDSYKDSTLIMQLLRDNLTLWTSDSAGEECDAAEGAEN", "assay": "FP displacement assay, 14-3-3 theta", "conditions": "probe FITC-2BTP; technical triplicates", "procedure": "as §1, §2"}}, "note": "Several values for one entry are separate records, joined by “and”; a condition that tells them apart may be missing. Equal values may be shown once. Non-standard residues stand in square brackets, D forms with d. Residues, ends and D or L forms follow the SMILES beside them. pS = N[C@@H](COP(=O)(O)O)C(=O)O", "data": [{"compound": "CC(=O)N[C@@H](Cc1ccccc1)C(=O)N1CCC[C@H]1C(=O)N[C@@H](CO)C(=O)N[C@@H](COP(=O)(O)O)C(=O)N[C@@H](Cc1ccc(O)cc1)C(=O)N[C@H](C(=O)N[C@@H](CCCCN)C(=O)N[C@@H](CC(C)C)C(=O)N[C@@H](CC(C)C)C(=O)N[C@@H](CCC(=O)O)C(=O)N[C@@H](CCC(=O)O)C(=O)N[C@@H](CC(N)=O)C(=O)N[C@@H](CCC(=O)O)C(=O)N[C@H](C(=O)N[C@@H](CCC(=O)O)C(=O)N[C@@H](C)C(N)=O)[C@@H](C)O)[C@@H](C)O", "note": "[BAIAPL1_392–407 pS] (Ac-FPS[pS]YTKLLEENETEA-NH2)", "values": [{"measurement": "Kd", "setting": "AP2 μ2", "value": "0.93 ± 0.01", "unit": "µM"}]}, {"compound": "CC(=O)N[C@@H](Cc1ccccc1)C(=O)N1CCC[C@H]1C(=O)N[C@@H](CO)C(=O)N[C@@H](CO)C(=O)N[C@@H](Cc1ccc(O)cc1)C(=O)N[C@H](C(=O)N[C@@H](CCCCN)C(=O)N[C@@H](CC(C)C)C(=O)N[C@@H](CC(C)C)C(=O)N[C@@H](CCC(=O)O)C(=O)N[C@@H](CCC(=O)O)C(=O)N[C@@H](CC(N)=O)C(=O)N[C@@H](CCC(=O)O)C(=O)N[C@H](C(=O)N[C@@H](CCC(=O)O)C(=O)N[C@@H](C)C(N)=O)[C@@H](C)O)[C@@H](C)O", "note": "[BAIAPL1_392–407 wt] (Ac-FPSSYTKLLEENETEA-NH2)", "values": [{"measurement": "Kd", "setting": "AP2 μ2", "value": "1.29 ± 0.06", "unit": "µM"}]}, {"compound": "CC[C@H](C)[C@H](NC(=O)[C@H](CC(C)C)NC(=O)[C@H](CC(N)=O)NC(=O)CNC(=O)CNC(=O)[C@H](Cc1ccc(O)cc1)NC(C)=O)C(=O)N[C@H](C(=O)N[C@@H](Cc1ccccc1)C(=O)N[C@@H](CCC(=O)O)C(=O)N1CCC[C@H]1C(=O)N[C@@H](CC(C)C)C(=O)N[C@@H](CCC(N)=O)C(=O)N1CCC[C@H]1C(=O)NCC(=O)N[C@@H](CCC(=O)O)C(=O)N[C@@H](Cc1ccccc1)C(N)=O)[C@@H](C)O", "note": "[HURP832–846 E] (Ac-YGGNLITFEPLQPGEF-NH2)", "values": [{"measurement": "Kd", "setting": "Clathrin NTD [1]", "value": "23 ± 2", "unit": "µM"}, {"measurement": "Kd", "setting": "Clathrin NTD [2]", "value": 22, "unit": "µM"}]}, {"compound": "CC[C@H](C)[C@H](NC(=O)[C@H](CC(C)C)NC(=O)[C@H](CC(N)=O)NC(=O)CNC(=O)CNC(=O)[C@H](Cc1ccc(O)cc1)NC(C)=O)C(=O)N[C@H](C(=O)N[C@@H](Cc1ccccc1)C(=O)N[C@@H](COP(=O)(O)O)C(=O)N1CCC[C@H]1C(=O)N[C@@H](CC(C)C)C(=O)N[C@@H](CCC(N)=O)C(=O)N1CCC[C@H]1C(=O)NCC(=O)N[C@@H](CCC(=O)O)C(=O)N[C@@H](Cc1ccccc1)C(N)=O)[C@@H](C)O", "note": "[HURP832–846 pS] (Ac-YGGNLITF[pS]PLQPGEF-NH2)", "values": [{"measurement": "Kd", "setting": "Clathrin NTD [1]", "value": "< 3", "unit": "µM"}, {"measurement": "IC50", "setting": "Clathrin NTD [1]; Fig 6A, clathrin NTD, FP displacement, two to three technical replicates per protein preparation, 2 independent preparations, read-out: IC50 values of displacement curves, with SEM", "value": "11 ± 4", "unit": "µM"}, {"measurement": "Kd", "setting": "Clathrin NTD [2]", "value": "5 µM and 3 µM"}]}, {"compound": "CC[C@H](C)[C@H](NC(=O)[C@H](CC(C)C)NC(=O)[C@H](CC(N)=O)NC(=O)CNC(=O)CNC(=O)[C@H](Cc1ccc(O)cc1)NC(C)=O)C(=O)N[C@H](C(=O)N[C@@H](Cc1ccccc1)C(=O)N[C@@H](CO)C(=O)N1CCC[C@H]1C(=O)N[C@@H](CC(C)C)C(=O)N[C@@H](CCC(N)=O)C(=O)N1CCC[C@H]1C(=O)NCC(=O)N[C@@H](CCC(=O)O)C(=O)N[C@@H](Cc1ccccc1)C(N)=O)[C@@H](C)O", "note": "[HURP832–846 wt] (Ac-YGGNLITFSPLQPGEF-NH2)", "values": [{"measurement": "Kd", "setting": "Clathrin NTD [1]", "value": "134 ± 16", "unit": "µM"}, {"measurement": "Kd", "setting": "Clathrin NTD [2]", "value": 266, "unit": "µM"}]}, {"compound": "CC(=O)N[C@@H](Cc1c[nH]cn1)C(=O)N[C@@H](CC(C)C)C(=O)N1CCC[C@H]1C(=O)N[C@@H](CC(C)C)C(=O)N[C@@H](CC(N)=O)C(=O)N[C@@H](CO)C(=O)N1CCC[C@H]1C(=O)N[C@@H](CC(C)C)C(=O)N1CCC[C@H]1C(=O)NCC(=O)N[C@@H](CO)C(=O)N[C@@H](CCC(=O)O)C(=O)N[C@@H](CC(C)C)C(=O)N[C@H](C(=O)N[C@@H](CCCCN)C(=O)N[C@@H](Cc1ccc(O)cc1)C(N)=O)[C@@H](C)O", "note": "[INTS6_145–159 wt] (Ac-HLPLNSPLPGSELTKY-NH2)", "values": [{"measurement": "Kd", "setting": "RANBP2 RanBD4", "value": "334 ± 35", "unit": "µM"}]}, {"compound": "CC[C@H](C)[C@H](NC(=O)[C@@H](NC(=O)[C@@H]1CCCN1C(=O)[C@H](COP(=O)(O)O)NC(=O)[C@H](CO)NC(=O)[C@H](C)NC(=O)[C@@H]1CCCN1C(=O)[C@H](CCSC)NC(=O)[C@@H]1CCCN1C(=O)[C@H](CCC(N)=O)NC(=O)[C@H](Cc1ccc(O)cc1)NC(=O)[C@@H]1CCCN1C(=O)[C@@H](NC(=O)[C@@H](NC(=O)[C@H](CCSC)NC(C)=O)[C@@H](C)O)[C@@H](C)CC)C(C)C)C(=O)N[C@@H](CS)C(N)=O", "note": "[PCBP1_179–194 pS] (Ac-MTIPYQPMPAS[pS]PVIC-NH2)", "values": [{"measurement": "Kd", "setting": "AP2 μ2", "value": "0.67 ± 0.04", "unit": "µM"}]}, {"compound": "CC[C@H](C)[C@H](NC(=O)[C@@H](NC(=O)[C@@H]1CCCN1C(=O)[C@H](CO)NC(=O)[C@H](CO)NC(=O)[C@H](C)NC(=O)[C@@H]1CCCN1C(=O)[C@H](CCSC)NC(=O)[C@@H]1CCCN1C(=O)[C@H](CCC(N)=O)NC(=O)[C@H](Cc1ccc(O)cc1)NC(=O)[C@@H]1CCCN1C(=O)[C@@H](NC(=O)[C@@H](NC(=O)[C@H](CCSC)NC(C)=O)[C@@H](C)O)[C@@H](C)CC)C(C)C)C(=O)N[C@@H](CS)C(N)=O", "note": "[PCBP1_179–194 wt] (Ac-MTIPYQPMPASSPVIC-NH2)", "values": [{"measurement": "Kd", "setting": "AP2 μ2", "value": "3.7 ± 0.1", "unit": "µM"}]}, {"compound": "H3COC-DMYALTRGSS(E/pS)LADQRK-NH2 [S375 TOM1_366–382, wild-type TOM1 366-382 (F368Y) peptide]", "values": [{"measurement": "binding in FP displacement experiment", "setting": "14-3-3 theta", "value": "no binding"}]}, {"compound": "H3COC-DMYALTRGSS(E/pS)LADQRK-NH2 [S375E TOM1_366–382, phosphomimetic TOM1 366-382 peptide]", "values": [{"measurement": "binding in FP displacement experiment", "setting": "14-3-3 theta", "value": "no binding"}]}, {"compound": "H3COC-DMYALTRGSS(E/pS)LADQRK-NH2 [pS375 TOM1_366–382, phosphorylated TOM1 366-382 peptide]", "values": [{"measurement": "binding in FP displacement experiment", "setting": "14-3-3 theta", "value": "weak affinity"}]}]}
